From patent US20220017478A1, “2-BENZOYLAMINOBENZAMIDE DERIVATIVES AS BCL-3 INHIBITORS” (University College Cardiff Consultants Limited, priority 2013, published 2022) come the findings set out here.

pIC50: −log10 of the molar value. A value given as a limit tells only on which side of the number the result lay.

The nature of series [1]: Cell Titre Blue viability assay, HEK-293. It is filed as cell-based. To be noted: human, HEK-293 cells, HEK-293, 10 μM, vs DMSO. From the text: In all assays, a DMSO control was always used.
A short description of series [2]: Cell Titre Blue viability assay, MDA-MB-231. The note with it: human, MDA-MB-231 cells.
Experimental: The viability of cells at experimental endpoints for particular assays was determined using the Cell Titre Blue reagent (Promega, Southampton, UK). This reagent measures the cellular metabolic activity using resazurin as an indicator dye. Viable cells, therefore metabolically active, will reduce resazurin into highly fluorescent resofurin. The resulting fluorescence levels are measured and indicate cell viability.
Cells were plated at low confluency into 96 well plates in 100 μl of complete growth media in triplicates and were incubated at 37° C. in 5% CO2 for the desired test exposure period. For each 100 μl of media in 96 well plates, 20 μl Cell Titre Blue reagent was added followed by incubation for an hour at 37° C. in 5% CO2. Fluorescence was then measured by setting excitation/emission wavelengths to 560/590 nm on a Flurostar Optima plate reader (BMG tabtech, Bucks, UK).
Cell toxicity was evaluated using the Cell Titre Blue viability assay over a range of molarities for 24 hrs.
Selected compounds were dissolved in DMSO and diluted to a highest concentration of 10 μM (0.1% DMSO). In all assays, a DMSO control was always used. Selected compounds were tested for cell toxicity in HEK-293 and MDA-MB-231 cells before being used in cell-based assays. Cell toxicity was evaluated using the Cell Titre Blue viability assay over a range of molarities for 24 hrs
A further series concerns MDA-MB-231 cells. The note with it: 10 µM.
The test system of another series is NF-κB activity. The experiment in a line: NF-κB luciferase reporter assay in MDA-MB-231 cells overexpressing Bcl-3. The class given is cell-based, human. The note with it: for pIC50: MDA-MB-231 overexpressing Bcl-3, 24 hrs then reporter 48 hrs, read-out: IC50 NF-κB activity. How it is done:
For NF-κB luciferase assays, cells were seeded into clear bottom black 96-well plates (Corning Inc., Lowell, US) in antibiotic free culture media in appropriate density. After 24 hrs, cells were transfected with 10 ng of 3×κB luciferase plasmid and 10 ng of pcDNA3.1-Lacl plasmid per well. Empty pcDNA3.1 plasmid was also included to normalize the total weight of DNA transfected to 100 ng. For positive and negative controls respectively, 10 ng of pGL3control or pGL3basic were transfected in place of 3×KB luciferase plasmid. Transfection was carried out using Lipofectamine LTX reagents (Invitrogen, Paisley, UK).
After 48 hrs post-transfection with luciferase reporter plasmid, the media was aspirated and cells were lyzed using 50 μl/well of Glo-lysis buffer (Promega, Southampton, UK). The plate was left on a rocker for 20 min to facilitate complete cell lysis. Then, 20 μl of lysate from each well was removed and transferred into a new clear bottom black well plate for measuring LacZ activity as a transfection efficiency control and followed by addition of 20 ul/well of Beta-Glo substrate (Promega, Southampton, UK) and cultivation at room temperature for at least 20 min. Subsequently, 30 μl/well of Bright-Glo luciferase substrate (Promega, Southampton, UK) was added to the original plate and asses immediately for luminescence activity. The luminescence produced from either reaction was read using a Flurostar Optima plate reader (BMG tabtech, Bucks, UK).
The effect of Compound 1a on NF-κB activity was determined by NF-κB luciferase assay in MDA-MB-231 and HEK-293 cells overexpressing Bcl-3 and HEK-293 cells overexpressing p52. Cells were cultivated with Compound 1a over a range of molarities for 24 hrs before being transfected with NF-κB luciferase reporter plasmid for 48 hrs and analyzed for NF-κB activity.
The effect of selected analogues on NF-κB activity was determined by NF-KB luciferase assay in MDA-MB-231 cells. MDA-MB-231 Bcl-3 over-expressing cells were cultivated with compounds from series 1-3 at 1 μM concentration for 24 hrs before being transfected with NF-κB luciferase reporter plasmid for 48 hrs together with controls and analyzed for NF-κB activity.
Based on the results for the series of analogues, we have established dose response curve for selected analogues from series 1 (If), from series 2 (2a and 2c) and from series 3 (3a) over a range of molarities. MDA-MB-231 Bcl-3 WT cells were cultivated with selected compounds from series 1-3 over a range of molarities for 24 hrs before being transfected with NF-κB luciferase reporter plasmid for 48 hrs together with controls and analyzed for NF-κB activity (FIG. 7).

The viability is a per cent measure of how many cells are alive, often set against a control. Higher therefore signals less harm to the cells. Take `O=C(Nc1ccccc1C(=O)NCCN1CCOCC1)c1ccc(F)cc1` [Compound 1c, 2-[(4-fluorobenzoyl)amino]-N-(2-morpholin-4-ylethyl)benzamide]: the viability at 24 h, 10 µM in series [1] and in series [2] was above 70% each time.

With `COc1cccc(C(=O)Nc2ccccc2C(=O)NCCN2CCOCC2)c1` [Compound 1e, 2-[(3-methoxybenzoyl)amino]-N-(2-morpholin-4-ylethyl)benzamide], the viability at 24 h, 10 µM in series [1] and in series [2] was above 70% throughout.

Take `O=C(NCCN1CCOCC1)c1ccccc1NC(=O)c1ccccc1[N+](=O)[O-]` [Compound 1g, 2-[(2-nitrobenzoyl)amino]-N-(2-morpholin-4-ylethyl)benzamide]: the viability at 24 h, 10 µM in series [1] and in series [2] was above 70% in each case.

In the case of `O=C(Nc1ccccc1C(=O)NCCN1CCOCC1)c1ccc([N+](=O)[O-])cc1` [Compound 1i, 2-[(4-nitrobenzoyl)amino]-N-(2-morpholin-4-ylethyl) benzamide], the cell viability entry with MDA-MB-231 cells was “above 70%”.

One may read the pIC50 as the negative decadic logarithm of the IC50, by convention in mol/L. As to `O=C(Nc1ccccc1C(=O)NCCN1CCOCC1)c1cc(F)cc(F)c1` [Compound 1o, 3,5-difluoro-N-(2-[(2-morpholin-4-ylethyl)carbamoyl]phenyl) benzamide], the pIC50 with NF-κB activity was 6.62.

Take `O=C(NCCN1CCOCC1)c1ccccc1NC(=O)c1c(F)cccc1F` [Compound 1p, 2,6-difluoro-N-(2-[(2-morpholin-4-ylethyl)carbamoyl]phenyl) benzamide]: the pIC50 with NF-κB activity was 6.15.

Take `O=C(Nc1ccccc1C(=O)NCCN1CCOCC1)c1ccc(F)cc1F` [Compound 1q, 2,4-difluoro-N-(2-[(2-morpholin-4-ylethyl)carbamoyl]phenyl) benzamide]: the pIC50 in the series on NF-κB activity was 6.00.

`O=C(Nc1ccc(I)cc1C(=O)NCCN1CCOCC1)c1ccccc1F` [Compound 3c, 2-[(2-fluorobenzoyl)amino]-5-iodo-N-(2-morpholin-4-ylethyl)benzamide]: the “effect on NF-κB activity” value with NF-κB activity (1 μM, 24 hrs, MDA-MB-231 Bcl-3 over-expressing cells, vs DMSO control / Compound 1a) is reported as “significant decrease in NF-κB activity”.
